Source: PMC12070314, “Efficient Small-Molecule Reversal Agents for Anticoagulant Fondaparinux” (ACS Pharmacology & Translational Science, 2025)

How the values were obtained:
HeLa cells = test: MTT cell viability assay; type: cell-based; settings: concentrations <100 μM
Experimental: (§1) A549 and HeLa cells were maintained in DMEM ([…] glucose, Sigma) containing 10% fetal calf serum (FCS), 2 mM glutamine, 50 U/mL penicillin, and […] streptomycin at 37 °C under a 5% CO2 atmosphere. HMEC-1 and fibroblast cells were maintained in MCDB 131 medium (GIBCO) containing 10% fetal calf serum (FCS), 2 mM glutamine, 50 U/mL penicillin, and […] streptomycin at 37 °C under a 5% CO2 atmosphere.
(§2) The viability of A549 and HeLa cells was tested using the 3-(4,5-dimethylthiazol-2-yl)-2,5-diphenyltetrazolium bromide (MTT) assay. In it, exponentially growing cells were detached from the culture flasks using a trypsin–0.25% EDTA solution, and the cell suspension was seeded onto a 96-well plate (Nunclon) at a concentration of 9k cells/well. The toxicity of 3AC and 3FF was tested as follows: 24 h after seeding, culture medium was discarded and replaced by compound solution in PBS that was diluted with cell culture medium to the final concentration: [3××] = 10 to 100 μM. MTT (0.5 mg/mL) was added. […] Absorbance was measured at 570 nm using a spectrophotometric BioTek Synergy 2 Microplate Reader (Agilent), 30 min after the addition of DMSO. Cell viability is expressed as an absorbance percent ratio of cells treated with compound to untreated cells, which were used as a control. The results are the average from three independent experiments.

A549 cells = test: MTT cell viability assay; type: cell-based; settings: A549, concentrations <100 μM
Experimental: as §1, §2

fibroblasts = test: Resazurin cell viability assay; type: cell-based; settings: for Cell viability (toxicity): concentrations <100 μM, resazurin
Experimental: as §1
(§3) The viability of HMEC-1 and fibroblast cells was tested using the resazurin assay. In it, exponentially growing cells were detached from the culture flasks using a trypsin–0.25% EDTA solution, and the cell suspension was seeded onto a 96-well plate (Nunclon) at a concentration of 9k cells/well. Toxicity of 3AC and 3FF was tested as follows: 72 h after seeding, culture medium was discarded and replaced by compound solution in PBS that was diluted with cell culture medium to the final concentration: [3××] = 10 to 100 μM. Resazurin (0.1 mg/mL) was added. After 2 h of incubation, fluorescence was measured (λex = 560 nm // λem = 590 nm) using a spectrophotometric BioTek Synergy 2 Microplate Reader (Agilent). Cell viability is expressed as an emission percent ratio of cells treated with the compound to untreated cells, which were used as a control. The results are the average from three independent experiments. In experiments with fondaparinux, the cells were incubated for 2 h with [fondaparinux] = 100 μM and [3××] = 50/100/200 μM following the same procedure for the rest of the protocol.

HMEC-1 cells = test: Resazurin cell viability assay; type: cell-based; settings: for Cell viability (toxicity): HMEC-1, concentrations <100 μM, resazurin
Experimental: as §1, §3

[1] = NMR titration and DOSY binding study with fondaparinux; settings: water (D2O buffer), neutral pH
Source text: The [3AC–fond] binding was additionally studied by NMR. Titration of fond with 3AC modifies several ^1H and ^13C NMR signals that can be readily monitored by ^1H and ^1H–^13C HSQC NMR experiments (Figures and S5–S7). A close analysis of the corresponding chemical-shift perturbations (Figures C and S8) allows determination of the sugar rings to be more affected by the presence of the ligand (see the chemical structure with arbitrary labeling of the rings in Figure A). We hypothesized that [fond–3AC] binding occurs by polar interactions (through the ammonium and OH groups of 3AC with sulfate, carboxylate, and OH residues of fond) and nonpolar contacts (by CH–π interactions between aromatic rings of 3AC and pyranose CH bonds of fond). […] The corresponding ^1H NMR spectra in 90% H2O/10% D2O at pH 8.2 and 288 K allow detection of the NH-sulfamate protons (Figures D and S9) and confirmed the stronger perturbation of ring V. The conformational behavior of fond in the absence and presence of 3AC was additionally studied by acquiring a series of 2D NOESY and 2D ROESY spectra (Figures S10–S13). […]
One- and two-dimensional (1D and 2D) NMR experiments were performed at 298 K on a 500 MHz Bruker AVANCE III HD instrument equipped with a z-gradient (65.7 G cm^–1) inverse TCI-cryoprobe. Samples were dissolved in 5 mM Tris-d11 buffer with 50 mM NaCl (in D2O, pH 7.5, uncorrected pH meter reading). […]

Hemolysis assay = type: cell-based; settings: freshly isolated mouse erythrocytes, roughly 4-5% suspension, 37 °C
Experimental: Mouse blood (4 mL) was collected in a sodium citrate tube and immediately centrifuged at 1700g for 5 min. The supernatant was removed, and the erythrocytes were washed by adding 2 mL of PBS. It was centrifuged again at 1700g for 5 min. The washing step was repeated twice more. The supernatant was finally removed, and the erythrocytes were diluted in PBS until obtaining a roughly 4–5% suspension. 50 μL of erythrocyte solution was mixed with 50 μL of test compound (3×× at the desired concentration). As a negative control, 50 μL of PBS was used, while 10% Triton X-100 was used as a positive control. The samples were incubated at 37 °C for 60 min. After that, they were centrifuged (1700g for 5 min), and the supernatant was transferred to a 96-well plate. Absorbance was measured at 405 nm. The experiment contained three technical replicates. The results are the average from three independent experiments.

SMILES	Cell viability (toxicity) (HeLa cells)	Cell viability (toxicity) (A549 cells)	Cell toxicity in the presence of fondaparinux (fibroblasts; 100 μM fondaparinux, 50/100/200 μM compound)	Cell viability (toxicity) (fibroblasts)	Cell toxicity in the presence of fondaparinux (HMEC-1 cells; HMEC-1, 100 μM fondaparinux, 50/100/200 μM compound)	Cell viability (toxicity) (HMEC-1 cells)	Binding to fond by NMR [1]	hemolysis at 60 min (Hemolysis assay) [%]
Oc1ccccc1CNCCCNCCCCNCCCNCc1ccc2c(c1)Cc1ccccc1-2 [Compound 3AC]	low to acceptable cell toxicity	low to acceptable cell toxicity	reduced	low to acceptable cell toxicity	reduced	low to acceptable cell toxicity	strong binding	< 2
Oc1ccc2ccccc2c1CNCCCNCCCCNCCCNCc1c(O)ccc2ccccc12 [Compound 3FF]	low to acceptable cell toxicity	low to acceptable cell toxicity		low to acceptable cell toxicity		low to acceptable cell toxicity	slightly weaker binding	< 2
